Experimental data reported in ChEMBL document CHEMBL5230154, “Chemical probe of AHL modulators on quorum sensing in Gram-Negative Bacteria and as antiproliferative agents: A review” (Eur J Med Chem, 2021).
Each block holds one molecule with its values, some of them ahead of it.

Tests used:
[1] = Antagonist activity against quorum sensing system in Pseudomonas aeruginosa PAO1 transfected with lasB-lacZ reporter gene assessed as inhibition of beta-galactosidase activity incubated for 24 hrs by elastin-Congo red assay
[2] = Cytotoxicity against human PBMC cells assessed as reduction in cell viability at 100 uM by MTT assay; assay type: toxicity, cell-based
Pseudomonas aeruginosa [3] = experiment: Antagonist activity against quorum sensing system in Pseudomonas aeruginosa PAO-JP2 (plasI-LVAgfp) assessed as inhibition of 3-oxo-C12 HSL induced GFP expression at 100 uM incubated for 6 hrs in presence of 1 uM of 3-oxo-C12 HSL by fluorescence analysis
Pseudomonas aeruginosa [4] = experiment: Anti-motility activity against Pseudomonas aeruginosa PAO1 NCTC 10332 assessed as reduction in swimming at 50 uM and measured after 18 hr; assay type: functional; parameters: scale not given: the % may be the effect or the level left
Pseudomonas aeruginosa [5] = experiment: Antibiofilm activity against Pseudomonas aeruginosa PAO1 NCTC 10332 assessed as inhibition of biofilm formation incubated for 24 hrs by crystal violet staining based assay; assay type: functional, organism-based; conditions: PAO1 NCTC 10332, 24 h
[6] = Inhibition of quorum sensing system in Pseudomonas aeruginosa PAO1 assessed as inhibition of pqsR expression incubated for 4 hrs by RT-PCR analysis
[7] = Inhibition of quorum sensing system in Pseudomonas aeruginosa PA14 assessed as inhibition of pyocyanin production by UV-vis spectrophotometric assay
Pseudomonas aeruginosa [8] = experiment: Anti-motility activity against Pseudomonas aeruginosa PAO1 NCTC 10332 assessed as reduction in swarming at 50 uM and measured after 16 hr by swarming assay; assay type: functional; parameters: scale not given: the % may be the effect or the level left
[9] = Inhibition of quorum sensing system in Pseudomonas aeruginosa PAO1 assessed as inhibition of RhlR expression incubated for 4 hrs by RT-PCR analysis
[10] = Inhibition of quorum sensing system in Pseudomonas aeruginosa PA14 assessed as inhibition of pyocyanin production incubated for 17 hrs by spectrophotometric assay
[11] = Antagonist activity against quorum sensing system in Pseudomonas aeruginosa PAO1 transfected with rhlA-lacZ reporter gene assessed as inhibition of beta-galactosidase activity incubated for 24 hrs by elastin-Congo red assay
[12] = Inhibition of quorum sensing system in Pseudomonas aeruginosa PAO1 assessed as decrease in lasA expression at 15 uM incubated for 12 hrs by real-time fluorescent quantitative PCR analysis
[13] = Inhibition of quorum sensing system in Pseudomonas aeruginosa PAO1 assessed as decrease in pqsR expression at 15 uM incubated for 12 hrs by real-time fluorescent quantitative PCR analysis
[14] = Inhibition of quorum sensing system in Pseudomonas aeruginosa PAO1 assessed as decrease in rhlR expression at 15 uM incubated for 12 hrs by real-time fluorescent quantitative PCR analysis
Pseudomonas aeruginosa [15] = experiment: Inhibition of biofilm formation in Pseudomonas aeruginosa PAO1 incubated for 12 hrs by crystal violet staining based analysis; assay type: functional
[16] = Inhibition of quorum sensing system in Pseudomonas aeruginosa PAO1 assessed as decrease in lasI expression at 15 uM incubated for 12 hrs by real-time fluorescent quantitative PCR analysis
[17] = Inhibition of quorum sensing system in Pseudomonas aeruginosa PAO1 assessed as inhibition of pyocyanin production at 15 uM incubated for 12 hrs by spectrophotometric assay
[18] = Inhibition of quorum sensing system in Pseudomonas aeruginosa PAO1 assessed as inhibition of elastase production at 15 uM incubated for 12 hrs by Congo red dye based spectrophotometric assay
[19] = Inhibition of quorum sensing system in Pseudomonas aeruginosa PAO1 assessed as inhibition of rhamnolipid production at 15 uM incubated for 12 hrs by spectrophotometric assay
[20] = Inhibition of quorum sensing system in Pseudomonas aeruginosa PAO1 assessed as decrease in pqsA expression at 15 uM incubated for 12 hrs by real-time fluorescent quantitative PCR analysis
Escherichia coli [21] = experiment: Inhibition of Escherichia coli MT102 harbouring pJBA132 expressing Gfp assessed as inhibition of GFP fluorescence expression at 125 uM incubated for 15 hrs by fluorescence microplate reader analysis
Escherichia coli [22] = experiment: Inhibition of Escherichia coli MT102 harbouring pJBA132 expressing Gfp assessed as inhibition of GFP fluorescence expression at 250 uM incubated for 15 hrs by fluorescence microplate reader analysis
Escherichia coli [23] = experiment: Inhibition of Escherichia coli MT102 harbouring pJBA132 expressing Gfp assessed as inhibition of GFP fluorescence expression at 62.5 uM incubated for 15 hrs by fluorescence microplate reader analysis
Pseudomonas aeruginosa [24] = experiment: Inhibition of Pseudomonas aeruginosa MH602 harboring PlasB::gfp(ASV) reporter assessed as decrease in GFP expression at 250 uM incubated for 22 hrs by fluorescence microplate reader analysis
Pseudomonas aeruginosa [25] = experiment: Inhibition of quorum sensing system in Pseudomonas aeruginosa MH602 expressing PlasB::gfp assessed as inhibition of GFP fluorescence expression at 250 uM incubated for 15 hrs by fluorescence microplate reader analysis
Pseudomonas aeruginosa [26] = experiment: Inhibition of quorum sensing system in Pseudomonas aeruginosa MH602 expressing PlasB::gfp assessed as inhibition of GFP fluorescence expression at 62.5 uM incubated for 15 hrs by fluorescence microplate reader analysis
[27] = Inhibition of quorum sensing system in Pseudomonas aeruginosa MW1 assessed as inhibition of LasR expression incubated for 8 to 12 hrs in presence of 3-oxo-C12 HSL by fluorescence analysis
[28] = Inhibition of quorum sensing system in Pseudomonas aeruginosa MW1 assessed as inhibition of LasR expression at 33 uM incubated for 8 to 12 hrs in presence of 3-oxo-C12 HSL by fluorescence analysis; conditions: time 8-12 hrs
Pseudomonas aeruginosa [29] = experiment: Antagonist activity against quorum sensing system in Pseudomonas aeruginosa PAO-JP2 (plasI-LVAgfp) assessed as inhibition of 3-oxo-C12 HSL induced GFP expression at 100 uM incubated for 6 hrs in presence of 50 uM of 3-oxo-C12-D10 by fluorescence analysis; conditions: filed as antagonist
Pseudomonas aeruginosa [30] = experiment: Antagonist activity against quorum sensing system in Pseudomonas aeruginosa PAO-JP2 (plasI-LVAgfp) assessed as inhibition of 3-oxo-C12 HSL induced GFP expression at 100 uM incubated for 6 hrs in presence of 100 uM of 3-oxo-C12-D10 by fluorescence analysis; conditions: filed as antagonist
Pseudomonas aeruginosa [31] = experiment: Antagonist activity against quorum sensing system in Pseudomonas aeruginosa PAO-JP2 (plasI-LVAgfp) assessed as inhibition of 3-oxo-C12 HSL induced GFP expression at 100 uM incubated for 6 hrs in presence of 10 uM of 3-oxo-C12-D10 by fluorescence analysis; conditions: filed as antagonist
Serratia marcescens = experiment: Antibiofilm activity against Serratia marcescens ATCC 27117 assessed as inhibition of biofilm formation incubated for 24 hrs by crystal violet staining based assay; assay type: functional, organism-based; conditions: ATCC 27117, 24 h

SMILES: O=C(CCCNc1ccc(F)cc1)NC1CCOC1=O (centres undefined)
- Activity [2]: 49.2%

SMILES: O=C(CCCNc1ccc(Cl)cc1)NC1CCOC1=O (centres undefined)
- Activity [2]: 57.4%

SMILES: O=C1C(=O)N(C(=O)CCl)c2ccc([N+](=O)[O-])cc21
- inhibition (Escherichia coli [21]): 60.8%
- inhibition (Escherichia coli [22]): 65.8%
- inhibition (Escherichia coli [23]): 48.5%
- inhibition (Pseudomonas aeruginosa [24]): 57.3%

SMILES: CCCCCCCCCCCC(=O)NC1CCCCC1=O (centres undefined)
- inhibition (Pseudomonas aeruginosa [3]): 30%

SMILES: O=C1Cn2nncc2CNC(=O)C(=O)c2ccccc2NC(=O)Cn2nncc2CNC(=O)C(=O)c2ccccc2N1
- inhibition (Escherichia coli [22]): 18.7%
- inhibition (Pseudomonas aeruginosa [24]): 74%

SMILES: O=C1C(Cl)=C(Cl)CN1CCc1ccc(O)cc1
- inhibition (Pseudomonas aeruginosa [25]): 74%
- inhibition (Pseudomonas aeruginosa [26]): 32.1%

SMILES: CCCCCCCCCC(=O)CC(=O)Nc1ccccc1O
- inhibition (Pseudomonas aeruginosa [29]): 80%
- inhibition (Pseudomonas aeruginosa [30]): 90%
- inhibition (Pseudomonas aeruginosa [31]): 60%

SMILES: C#CCNC(=O)C(=O)c1ccccc1NC(=O)CCl
- inhibition (Escherichia coli [23]): 56.5%

SMILES: CCCCCCCCCNC(=O)CC(=O)c1ccccc1
- IC50 [27]: 10 µM
- inhibition [28]: 75%

Second part, led by results:

- IC50 [1]: 250 µM
SMILES: CCCCCCCC(=O)NC1CCCC1

- inhibition (Pseudomonas aeruginosa [3]; filed as antagonist): 70%
SMILES: CCCCCCCCCCCC(=O)NC1CCC[C@@H]1O (some centres undefined)

- IC50 (Pseudomonas aeruginosa [5]): 50 µM
- IC50 [6]: 25 µM
- IC50 [7]: 12 µM
- IC50 [9]: 40 µM
SMILES: Clc1ccc2c(NCCCCCCCCNCc3cc4ccccc4o3)ccnc2c1
- Activity (Pseudomonas aeruginosa [4]): 40%
- Activity (Pseudomonas aeruginosa [8]): 40%

- IC50 [6]: 30 µM
- IC50 [7]: 25 µM
SMILES: Clc1ccc2c(NCCCCCCCCNCc3cc4ccccc4s3)ccnc2c1
- Activity (Pseudomonas aeruginosa [4]): 40%
- Activity (Pseudomonas aeruginosa [8]): 40%

- IC50 [10]: 9 µM
SMILES: O=C(CCCOc1cccc(Cl)c1)NC1CCSC1=O (centres undefined)

- IC50 [1]: 80 µM
- IC50 [11]: 90 µM
SMILES: CCCCCCCCCC(=O)NC1CCCC1 [N-CYCLOPENTYLDECANAMIDE]

- inhibition [12]: 71%
- inhibition [13]: 47.9%
- inhibition [14]: 55.5%
- inhibition [16]: 38.9%
- inhibition [17]: 33%
- inhibition [18]: 14.3%
- inhibition [19]: 20.8%
- inhibition [20]: 67.7%
SMILES: O=C(CSC(=S)N[C@H]1CCOC1=O)NC(=O)Nc1cccc2ccccc12
- inhibition (INH) (Pseudomonas aeruginosa [15]): 35.3%

- IC50 [27]: 30 µM
- inhibition [28]: 50%
SMILES: CCCCCCCCCCCCn1nnc(CC(=O)O)n1

- IC50 (Pseudomonas aeruginosa [5]): 63 µM
- IC50 (Serratia marcescens): 63 µM
SMILES: NCCCCCCCCCCCCNc1ccnc2cc(C(F)(F)F)ccc12

- IC50 [10]: 8 µM
SMILES: O=C(CCCOc1cccc(Br)c1)NC1CCSC1=O (centres undefined)

- IC50 (Pseudomonas aeruginosa [5]): 69 µM
- IC50 [7]: 2.5 µM
- IC50 (Serratia marcescens): 69 µM
SMILES: NCCCCCCCCCCCCNc1ccnc2cc(Cl)ccc12
